How the values were obtained:
Type in all cases: in vivo
[1] = system: Matricaria inodora; assay: Pre-emergence herbicidal effect; details: scored visually after 3 weeks
From the text: (§1) Seeds of monocotyledonous and dicotyledonous weed plants and crop plants are laid out in wood-fiber pots in sandy loam and covered with soil. The compounds of the invention, formulated in the form of wettable powders (WP) or as emulsion concentrates (EC), are then applied to the surface of the covering soil as aqueous suspension or emulsion at a water application rate equating to 600 to 800 L/ha with addition of 0.2% wetting agent.
(§2) After the treatment, the pots are placed in a greenhouse and kept under good growth conditions for the trial plants. The damage to the test plants is scored visually after a test period of 3 weeks by comparison with untreated controls (herbicidal activity in percent (%): 100% activity=the plants have died, 0% activity=like control plants).
(§3) • ABUTH: Abutilon theophrasti ALOMY: Alopecurus myosuroides • AMARE: Amaranthus retroflexus AVEFA: Avena fatua • CYPES: Cyperus esculentus ECHCG: Echinochloa crus-galli • LOLMU: Lolium multiflorum MATIN: Matricaria inodora • PHBPU: Ipomoea purpurea POLCO: Polygonum convolvulus • SETVI: Setaria viridis STEME: Stellaria media • VERPE: Veronica persica VIOTR: Viola tricolor

[2] = system: Viola tricolor; assay: Pre-emergence herbicidal effect; details: scored visually after 3 weeks
From the text: as §1, §2, §3

[3] = system: Stellaria media; assay: Pre-emergence herbicidal effect; details: scored visually after 3 weeks
From the text: as §1, §2, §3

[4] = system: Amaranthus retroflexus; assay: Pre-emergence herbicidal effect; details: scored visually after 3 weeks
From the text: as §1, §2, §3

[5] = system: Veronica persica; assay: Pre-emergence herbicidal effect; details: scored visually after 3 weeks
From the text: as §1, §2, §3

[6] = system: Veronica persica; assay: Post-emergence herbicidal effect
From the text: (§4) • ABUTH: Abutilon theophrasti ALOMY: Alopecurus myosuroides • AMARE: Amaranthus retroflexus AVEFA: Avena fatua • CYPES: Cyperus esculentus ECHCG: Echinochloa crus-galli • LOLMU: Lolium multiflorum MATIN: Matricaria inodora • PHBPU: Ipomoea purpurea POLCO: Polygonum convolvulus • SETVI: Setaria viridis STEME: Stellaria media • VERPE: Veronica persica VIOTR: Viola tricolor Seeds of monocotyledonous and dicotyledonous weed and crop plants are laid out in sandy loam in wood-fiber pots, covered with soil and cultivated in a greenhouse under good growth conditions. 2 to 3 weeks after sowing, the test plants are treated at the one-leaf stage. The compounds of the invention, formulated in the form of wettable powders (WP) or as emulsion concentrates (EC), are then sprayed onto the green parts of the plants as aqueous suspension or emulsion at a water application rate equating to 600 to 800 L/ha with addition of 0.2% wetting agent. After the test plants have been left to stand in the greenhouse under optimal growth conditions for about 3 weeks, the action of the preparations is assessed visually in comparison to untreated controls (herbicidal action in percent (%): 100% activity=the plants have died, 0% activity=like control plants).

[7] = system: Viola tricolor; assay: Post-emergence herbicidal effect
From the text: as §4

[8] = system: Setaria viridis; assay: Pre-emergence herbicidal effect; details: Dosage 320 g/ha, scored visually after 3 weeks
From the text: as §1, §2, §3

[9] = system: Amaranthus retroflexus; assay: Post-emergence herbicidal effect; details: assessed visually after about 3 weeks vs untreated controls
From the text: as §4

[10] = system: Stellaria media; assay: Post-emergence herbicidal effect; details: assessed visually after about 3 weeks vs untreated controls
From the text: as §4

[11] = system: Polygonum convolvulus; assay: Pre-emergence herbicidal effect; details: Dosage 320 g/ha, scored visually after 3 weeks
From the text: as §1, §2, §3

[12] = system: Alopecurus myosuroides; assay: Pre-emergence herbicidal effect; details: Dosage 320 g/ha, scored visually after 3 weeks
From the text: as §1, §2, §3

[13] = dosage not printed (first line of Ex. 30)
[14] = 320 g/ha, assessed visually after about 3 weeks vs untreated controls
[15] = 80 g/ha, assessed visually after about 3 weeks vs untreated controls

## Cc1sc(C)c2c1CCCC2Nc1ncc(C(F)(F)F)c(N)n1 (racemic) [compound 2]
[1]; Dosage 320 g/ha
  MATIN pre-emergence efficacy (herbicidal activity): 80%
[2]; Dosage 320 g/ha
  VIOTR pre-emergence efficacy (herbicidal activity): 100%
[3]; Dosage 320 g/ha
  STEME pre-emergence efficacy (herbicidal activity): 100%

## COc1nc(NC2CCCc3sc(C)cc32)ncc1C(F)(F)F (racemic) [compound 10]
[4]; Dosage 320 g/ha
  AMARE pre-emergence efficacy (herbicidal activity): 80%
[5]; Dosage 320 g/ha
  VERPE pre-emergence efficacy (herbicidal activity): 100%
[3]; Dosage 320 g/ha
  STEME pre-emergence efficacy (herbicidal activity): 100%

## N=S(=O)(c1ccccc1)c1cnc(NC2CCCc3sccc32)nc1N (racemic) [compound 27]
[1]; Dosage 80 g/ha
  MATIN pre-emergence efficacy (herbicidal activity): 90%
[1]; Dosage 320 g/ha
  MATIN pre-emergence efficacy (herbicidal activity): 100%
[4]; Dosage 320 g/ha
  AMARE pre-emergence efficacy (herbicidal activity): 100%
[5]; Dosage 320 g/ha
  VERPE pre-emergence efficacy (herbicidal activity): 100%
[2]; Dosage 320 g/ha
  VIOTR pre-emergence efficacy (herbicidal activity): 100%
[3]; Dosage 320 g/ha
  STEME pre-emergence efficacy (herbicidal activity): 100%

## Cc1cc2c(s1)CCCC2Nc1ncc(C(=O)C(F)(F)Cl)c(N)n1 (racemic) [compound 30]
[6]; [13]
  post-emergence efficacy VERPE: 80%
[7]; [13]
  post-emergence efficacy VIOTR: 90%
[7]; dosage not printed (second line of Ex. 30)
  post-emergence efficacy VIOTR: 80%
[1]; Dosage 80 g/ha
  MATIN pre-emergence efficacy (herbicidal activity): 100%
[1]; Dosage 320 g/ha
  MATIN pre-emergence efficacy (herbicidal activity): 100%
[4]; Dosage 80 g/ha
  AMARE pre-emergence efficacy (herbicidal activity): 90%
[4]; Dosage 320 g/ha
  AMARE pre-emergence efficacy (herbicidal activity): 100%
[5]; Dosage 80 g/ha
  VERPE pre-emergence efficacy (herbicidal activity): 90%
[5]; Dosage 320 g/ha
  VERPE pre-emergence efficacy (herbicidal activity): 100%
[8]
  SETVI pre-emergence efficacy (herbicidal activity): 90%
[2]; Dosage 80 g/ha
  VIOTR pre-emergence efficacy (herbicidal activity): 100%
[2]; Dosage 320 g/ha
  VIOTR pre-emergence efficacy (herbicidal activity): 100%
[3]; Dosage 80 g/ha
  STEME pre-emergence efficacy (herbicidal activity): 90%
[3]; Dosage 320 g/ha
  STEME pre-emergence efficacy (herbicidal activity): 100%

## Cc1cc2c(s1)CCC2Nc1ncc(S(=O)(=O)NCc2ccc(F)cc2)c(N)n1 (racemic) [compound 38]
[9]; 320 g/ha
  post-emergence efficacy AMARE: 80%
[6]; [14]
  post-emergence efficacy VERPE: 90%
[1]; Dosage 320 g/ha
  MATIN pre-emergence efficacy (herbicidal activity): 100%
[4]; Dosage 320 g/ha
  AMARE pre-emergence efficacy (herbicidal activity): 90%
[5]; Dosage 320 g/ha
  VERPE pre-emergence efficacy (herbicidal activity): 90%

## C/C(=N/O)c1cnc(NC2CCCc3sc(Cl)cc32)nc1C (racemic) [compound 259]
[5]; Dosage 320 g/ha
  VERPE pre-emergence efficacy (herbicidal activity): 100%
[8]
  SETVI pre-emergence efficacy (herbicidal activity): 100%
[2]; Dosage 320 g/ha
  VIOTR pre-emergence efficacy (herbicidal activity): 80%
[3]; Dosage 320 g/ha
  STEME pre-emergence efficacy (herbicidal activity): 100%

## Cc1cc2c(s1)CCCC2Nc1ncc(-c2cccc(F)c2)c(N)n1 (racemic) [compound 265]
[9]; 80 g/ha
  post-emergence efficacy AMARE: 80%
[9]; 320 g/ha
  post-emergence efficacy AMARE: 80%
[6]; [15]
  post-emergence efficacy VERPE: 90%
[6]; [14]
  post-emergence efficacy VERPE: 90%
[7]; [15]
  post-emergence efficacy VIOTR: 80%
[7]; [14]
  post-emergence efficacy VIOTR: 80%
[10]; 80 g/ha
  post-emergence efficacy STEME: 60%
[10]; 320 g/ha
  post-emergence efficacy STEME: 60%
[1]; Dosage 320 g/ha
  MATIN pre-emergence efficacy (herbicidal activity): 100%
[11]
  POLCO pre-emergence efficacy (herbicidal activity): 60%
[5]; Dosage 80 g/ha
  VERPE pre-emergence efficacy (herbicidal activity): 100%
[5]; Dosage 320 g/ha
  VERPE pre-emergence efficacy (herbicidal activity): 100%
[3]; Dosage 320 g/ha
  STEME pre-emergence efficacy (herbicidal activity): 100%

## Cc1cc2c(s1)CCCC2Nc1ncc(-c2cccc(Cl)c2)c(N)n1 (racemic) [compound 297]
[1]; Dosage 80 g/ha
  MATIN pre-emergence efficacy (herbicidal activity): 90%
[1]; Dosage 320 g/ha
  MATIN pre-emergence efficacy (herbicidal activity): 100%
[5]; Dosage 80 g/ha
  VERPE pre-emergence efficacy (herbicidal activity): 100%
[5]; Dosage 320 g/ha
  VERPE pre-emergence efficacy (herbicidal activity): 100%
[2]; Dosage 80 g/ha
  VIOTR pre-emergence efficacy (herbicidal activity): 70%
[2]; Dosage 320 g/ha
  VIOTR pre-emergence efficacy (herbicidal activity): 90%
[3]; Dosage 80 g/ha
  STEME pre-emergence efficacy (herbicidal activity): 80%
[3]; Dosage 320 g/ha
  STEME pre-emergence efficacy (herbicidal activity): 100%

## Cc1cc2c(s1)CCCC2Nc1nc(N)c(-c2cncc(F)c2)c(C(F)F)n1 (racemic) [compound 299]
[7]; [14]
  post-emergence efficacy VIOTR: 90%
[1]; Dosage 320 g/ha
  MATIN pre-emergence efficacy (herbicidal activity): 90%
[12]
  ALOMY pre-emergence efficacy (herbicidal activity): 100%
[4]; Dosage 320 g/ha
  AMARE pre-emergence efficacy (herbicidal activity): 100%
[8]
  SETVI pre-emergence efficacy (herbicidal activity): 90%
[2]; Dosage 320 g/ha
  VIOTR pre-emergence efficacy (herbicidal activity): 100%

## Cc1cccc(-c2c(N)nc(NC3CCCc4sc(C)cc43)nc2C(F)F)c1 (racemic) [compound 304]
[11]
  POLCO pre-emergence efficacy (herbicidal activity): 60%
[5]; Dosage 80 g/ha
  VERPE pre-emergence efficacy (herbicidal activity): 100%
[5]; Dosage 320 g/ha
  VERPE pre-emergence efficacy (herbicidal activity): 100%
[3]; Dosage 320 g/ha
  STEME pre-emergence efficacy (herbicidal activity): 100%

## CON=C(C)c1cnc(NC2CCCc3sccc32)nc1N (racemic) [compound 310]
[2]; Dosage 320 g/ha
  VIOTR pre-emergence efficacy (herbicidal activity): 100%
[3]; Dosage 320 g/ha
  STEME pre-emergence efficacy (herbicidal activity): 90%

## Cc1cc2c(s1)CCCC2Nc1nc(N)c(-c2cncc(F)c2)c(C(C)F)n1 (racemic) [compound 316]
[6]; [14]
  post-emergence efficacy VERPE: 100%
[7]; [14]
  post-emergence efficacy VIOTR: 80%
[1]; Dosage 320 g/ha
  MATIN pre-emergence efficacy (herbicidal activity): 80%
[11]
  POLCO pre-emergence efficacy (herbicidal activity): 70%
[4]; Dosage 320 g/ha
  AMARE pre-emergence efficacy (herbicidal activity): 100%
[5]; Dosage 320 g/ha
  VERPE pre-emergence efficacy (herbicidal activity): 100%
[2]; Dosage 320 g/ha
  VIOTR pre-emergence efficacy (herbicidal activity): 100%
[3]; Dosage 320 g/ha
  STEME pre-emergence efficacy (herbicidal activity): 100%

## Cc1cc2c(s1)CCCC2Nc1nc(N)c(S(C)(=O)=O)c(C(C)F)n1 (racemic) [compound 318]
[1]; Dosage 320 g/ha
  MATIN pre-emergence efficacy (herbicidal activity): 90%
[11]
  POLCO pre-emergence efficacy (herbicidal activity): 100%
[4]; Dosage 320 g/ha
  AMARE pre-emergence efficacy (herbicidal activity): 100%
[5]; Dosage 320 g/ha
  VERPE pre-emergence efficacy (herbicidal activity): 100%
[8]
  SETVI pre-emergence efficacy (herbicidal activity): 100%
[2]; Dosage 320 g/ha
  VIOTR pre-emergence efficacy (herbicidal activity): 100%
[3]; Dosage 320 g/ha
  STEME pre-emergence efficacy (herbicidal activity): 100%

## CC(=NOC(C)C)c1cnc(NC2CCCc3sc(C)cc32)nc1N (racemic) [compound 342]
[1]; Dosage 320 g/ha
  MATIN pre-emergence efficacy (herbicidal activity): 100%
[12]
  ALOMY pre-emergence efficacy (herbicidal activity): 70%
[5]; Dosage 80 g/ha
  VERPE pre-emergence efficacy (herbicidal activity): 100%
[5]; Dosage 320 g/ha
  VERPE pre-emergence efficacy (herbicidal activity): 100%
[3]; Dosage 80 g/ha
  STEME pre-emergence efficacy (herbicidal activity): 100%
[3]; Dosage 320 g/ha
  STEME pre-emergence efficacy (herbicidal activity): 100%

## CC(=O)c1cnc(NC2CCCc3sc(Cl)cc32)nc1C (stereo not shown) [compound 303]
[1]; Dosage 80 g/ha
  MATIN pre-emergence efficacy (herbicidal activity): 80%
[1]; Dosage 320 g/ha
  MATIN pre-emergence efficacy (herbicidal activity): 90%
[11]
  POLCO pre-emergence efficacy (herbicidal activity): 60%
[4]; Dosage 80 g/ha
  AMARE pre-emergence efficacy (herbicidal activity): 100%
[4]; Dosage 320 g/ha
  AMARE pre-emergence efficacy (herbicidal activity): 100%
[5]; Dosage 80 g/ha
  VERPE pre-emergence efficacy (herbicidal activity): 100%
[5]; Dosage 320 g/ha
  VERPE pre-emergence efficacy (herbicidal activity): 100%
[2]; Dosage 80 g/ha
  VIOTR pre-emergence efficacy (herbicidal activity): 70%
[2]; Dosage 320 g/ha
  VIOTR pre-emergence efficacy (herbicidal activity): 90%
[3]; Dosage 80 g/ha
  STEME pre-emergence efficacy (herbicidal activity): 100%
[3]; Dosage 320 g/ha
  STEME pre-emergence efficacy (herbicidal activity): 100%
